Experimental data published in ChEMBL document CHEMBL1201862, “PubChem BioAssay data set” (2004).
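The compound was tested at five concentrations on cells cultured in 96-well plates, with a 48-hour exposure period. GI50: concentration for 50% inhibition of growth.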 The source made the active and inactive calls. Cut-off read from the data, not from the text of the source: active = GI50 up to about 1.1 µM and inactive = higher.

What was measured:
Test in all cases: growth of human tumour cells (NCI), 48 h
ACHN = system: ACHN
CCRF-CEM = system: CCRF-CEM
HOP-62 = system: HOP-62
Hs-578T = system: Hs-578T
OVCAR-3 = system: OVCAR-3
OVCAR-4 = system: OVCAR-4
OVCAR-8 = system: OVCAR-8
PC-3 = system: PC-3
SK-MEL-5 = system: SK-MEL-5
SK-OV-3 = system: SK-OV-3
SN12C = system: SN12C
SR = system: SR
SW-620 = system: SW-620
TK-10 = system: TK-10
UACC-257 = system: UACC-257
UACC-62 = system: UACC-62
UO-31 = system: UO-31
M14 = system: M14
MDA-N = system: MDA-N

SMILES	GI50 (ACHN)	GI50 (CCRF-CEM)	GI50 (HOP-62)	GI50 (Hs-578T)	GI50 (OVCAR-3)	GI50 (OVCAR-4)	GI50 (OVCAR-8)	GI50 (PC-3)	GI50 (SK-MEL-5)	GI50 (SK-OV-3)	GI50 (SN12C)	GI50 (SR)	GI50 (SW-620)	GI50 (TK-10)	GI50 (UACC-257)	GI50 (UACC-62)	GI50 (UO-31)	GI50 (M14)	GI50 (MDA-N)
N#Cc1[nH]c(=S)[nH]c1N	> 100 µM (inactive)	> 100 µM (inactive)	> 100 µM (inactive)	2.99 µM (inactive)	> 100 µM (inactive)	> 100 µM (inactive)	> 100 µM (inactive)	> 100 µM (inactive)	> 100 µM (inactive)	> 100 µM (inactive)	> 100 µM (inactive)	> 100 µM (inactive)	> 100 µM (inactive)	> 100 µM (inactive)	> 100 µM (inactive)	> 100 µM (inactive)	> 100 µM (inactive)		
NN/C(=N\S(=O)(=O)c1cccc2nsnc12)Nc1ccc(Cl)cc1	> 100 µM (inactive)	> 100 µM (inactive)	> 100 µM (inactive)		> 100 µM (inactive)	> 100 µM (inactive)	> 100 µM (inactive)	> 100 µM (inactive)	> 100 µM (inactive)	> 100 µM (inactive)	> 100 µM (inactive)	> 100 µM (inactive)	> 100 µM (inactive)	> 100 µM (inactive)	> 100 µM (inactive)	> 100 µM (inactive)	> 100 µM (inactive)	> 100 µM (inactive)	> 100 µM (inactive)
CCCCc1ccc(Nc2nc(Cl)c3ncn(C4CC(Oc5ccc(C)cc5)C(COc5ccc(C)cc5)O4)c3n2)cc1 (configuration not stated)	> 100 µM (inactive)	> 100 µM (inactive)	75.2 µM (inactive)	> 100 µM (inactive)	> 100 µM (inactive)		> 100 µM (inactive)		> 100 µM (inactive)	> 100 µM (inactive)	> 100 µM (inactive)	> 100 µM (inactive)	> 100 µM (inactive)	> 100 µM (inactive)	> 100 µM (inactive)	> 100 µM (inactive)	> 100 µM (inactive)	> 100 µM (inactive)	> 100 µM (inactive)
CCOc1ccc(NCC2CC/C(=C\C=C\c3ccccc3)C2=O)cc1 (configuration not stated)	30.5 µM (inactive)	6.75 µM (inactive)	29.9 µM (inactive)	29 µM (inactive)	18 µM (inactive)	27.5 µM (inactive)	16.9 µM (inactive)	23.6 µM (inactive)	16 µM (inactive)	> 100 µM (inactive)	16.6 µM (inactive)	4 µM (inactive)	5.83 µM (inactive)	19.9 µM (inactive)	18.5 µM (inactive)	24.4 µM (inactive)	26.6 µM (inactive)	13.7 µM (inactive)	
Cc1cc2nc3n(c2cc1C)C(c1c(F)cccc1F)SC3 (configuration not stated)	17.4 µM (inactive)	19.4 µM (inactive)	23.9 µM (inactive)	15.4 µM (inactive)	35.3 µM (inactive)	22.9 µM (inactive)	33.3 µM (inactive)	17.7 µM (inactive)	11 µM (inactive)	62.7 µM (inactive)	19.5 µM (inactive)	12.7 µM (inactive)	21.3 µM (inactive)	46.8 µM (inactive)	30.7 µM (inactive)	> 10 µM (inactive)	> 10 µM (inactive)	19.8 µM (inactive)	
O=C(CC(C(=O)c1ccsc1)c1ccc2c(c1)OCO2)c1ccccc1 (configuration not stated)	> 100 µM (inactive)	> 100 µM (inactive)	> 100 µM (inactive)	> 100 µM (inactive)	> 100 µM (inactive)	> 100 µM (inactive)	> 100 µM (inactive)		95.9 µM (inactive)	> 100 µM (inactive)	> 100 µM (inactive)	> 100 µM (inactive)	> 100 µM (inactive)	> 100 µM (inactive)	> 100 µM (inactive)	> 100 µM (inactive)	> 100 µM (inactive)	> 100 µM (inactive)	> 100 µM (inactive)
CC(C)CC(NC(=O)OCc1ccccc1)C(=O)NCCCCC(N)C(=O)NC(CCCCNC(=O)C(CC(C)C)NC(=O)OCc1ccccc1)C(=O)NC(CCCCNC(=O)C(CC(C)C)NC(=O)OCc1ccccc1)C(=O)NC(CCCCNC(=O)C(CC(C)C)NC(=O)OCc1ccccc1)C(=O)NC(CCCCNC(=O)C(CC(C)C)NC(=O)OCc1ccccc1)C(=O)NC(CCCCNC(=O)C(CC(C)C)NC(=O)OCc1ccccc1)C(=O)O (configuration not stated)	> 100 µM (inactive)	> 100 µM (inactive)	> 100 µM (inactive)		> 100 µM (inactive)	> 100 µM (inactive)	> 100 µM (inactive)	> 100 µM (inactive)	> 100 µM (inactive)		> 100 µM (inactive)	> 100 µM (inactive)	> 100 µM (inactive)	> 100 µM (inactive)	> 100 µM (inactive)	> 100 µM (inactive)	> 100 µM (inactive)		> 100 µM (inactive)
Oc1ccc(/C=N/CC2CCCN3CCCCC23)cc1 (configuration not stated)	15.5 µM (inactive)		26.7 µM (inactive)	33.1 µM (inactive)	29.4 µM (inactive)	17.8 µM (inactive)	44 µM (inactive)	26.4 µM (inactive)	20.5 µM (inactive)	46 µM (inactive)	19.1 µM (inactive)			23.4 µM (inactive)	24.3 µM (inactive)	24.5 µM (inactive)	23.1 µM (inactive)	26.5 µM (inactive)	18.4 µM (inactive)
Cc1ccccc1NC(=O)C(=O)CC(=O)c1sc(Nc2ccccc2[N+](=O)[O-])nc1C	20.3 µM (inactive)		25.2 µM (inactive)	40.8 µM (inactive)	32 µM (inactive)	18.2 µM (inactive)	43.4 µM (inactive)	28.1 µM (inactive)	27.8 µM (inactive)	25.2 µM (inactive)	50.6 µM (inactive)		36.1 µM (inactive)	25.7 µM (inactive)	29.9 µM (inactive)	18.2 µM (inactive)	10.4 µM (inactive)	39.7 µM (inactive)	35.7 µM (inactive)
O=C(CSCC(=O)N/N=C/c1cc(I)cc(I)c1O)N/N=C/c1cc(I)cc(I)c1O	11.9 µM (inactive)		9.27 µM (inactive)	6.78 µM (inactive)	27 µM (inactive)	47 µM (inactive)	6.34 µM (inactive)	32.3 µM (inactive)	10.6 µM (inactive)	10.8 µM (inactive)	23.2 µM (inactive)	3.54 µM (inactive)	13.6 µM (inactive)	7.4 µM (inactive)	22.4 µM (inactive)	12.8 µM (inactive)	13.2 µM (inactive)	17.8 µM (inactive)	
NS(=O)(=O)c1cc2c(cc1Cl)NC(C(=O)NNC(=O)c1ccncc1)=NS2(=O)=O	> 100 µM (inactive)	> 100 µM (inactive)	> 100 µM (inactive)		> 100 µM (inactive)	> 100 µM (inactive)	> 100 µM (inactive)		> 100 µM (inactive)	> 100 µM (inactive)	> 100 µM (inactive)	> 100 µM (inactive)	> 100 µM (inactive)	> 100 µM (inactive)	> 100 µM (inactive)	> 100 µM (inactive)	> 100 µM (inactive)	> 100 µM (inactive)	
O=CNNC(=O)Nc1ccc(Cl)cc1	> 100 µM (inactive)	> 100 µM (inactive)	> 100 µM (inactive)	> 100 µM (inactive)		> 100 µM (inactive)	> 100 µM (inactive)		> 100 µM (inactive)	> 100 µM (inactive)	> 100 µM (inactive)	> 100 µM (inactive)	> 100 µM (inactive)	> 100 µM (inactive)	> 100 µM (inactive)	> 100 µM (inactive)	68.7 µM (inactive)	> 100 µM (inactive)	
O=C1/C(=C/c2ccccc2)N=C2Sc3c([nH]cnc3=O)N12	> 100 µM (inactive)	> 100 µM (inactive)	> 100 µM (inactive)	73.1 µM (inactive)	> 100 µM (inactive)	35.1 µM (inactive)	> 100 µM (inactive)	> 100 µM (inactive)	> 100 µM (inactive)	> 100 µM (inactive)	> 100 µM (inactive)	25.1 µM (inactive)	> 100 µM (inactive)	> 100 µM (inactive)	> 100 µM (inactive)		> 100 µM (inactive)	> 100 µM (inactive)	
CC1(C)OC(CCC#N)CN1C(=O)OCc1ccccc1 (configuration not stated)	> 100 µM (inactive)	> 100 µM (inactive)			> 100 µM (inactive)	> 100 µM (inactive)	> 100 µM (inactive)	> 100 µM (inactive)	68.4 µM (inactive)	> 100 µM (inactive)	> 10 µM (inactive)	> 100 µM (inactive)	> 100 µM (inactive)	> 100 µM (inactive)	> 100 µM (inactive)	> 100 µM (inactive)	> 100 µM (inactive)	> 100 µM (inactive)	> 100 µM (inactive)
CN(C)CCNC(=O)c1ccc(NCCCN(C)CCCNc2ccc(C(=O)NCCN(C)C)c3nc4ccccc4c(O)c23)c2c(O)c3ccccc3nc12	0.0466 µM (active)	< 0.012 µM (active)	< 0.01 µM (active)	0.0223 µM (active)	0.0228 µM (active)	< 0.0164 µM (active)	< 0.01 µM (active)	< 0.01 µM (active)	0.158 µM (active)	< 0.0146 µM (active)	< 0.01 µM (active)	< 0.01 µM (active)	0.0171 µM (active)	0.16 µM (active)	0.185 µM (active)	0.0525 µM (active)	0.326 µM (active)	0.187 µM (active)	
Cc1cc(S(=O)(=O)Nc2nc3cscc3c(=O)n2N)c(S)cc1Cl	56.2 µM (inactive)	62.8 µM (inactive)	49.3 µM (inactive)		45 µM (inactive)	39.3 µM (inactive)	46.2 µM (inactive)	48.8 µM (inactive)	41 µM (inactive)	> 100 µM (inactive)	56.4 µM (inactive)		54.7 µM (inactive)	> 100 µM (inactive)	> 100 µM (inactive)	31.9 µM (inactive)		31.9 µM (inactive)	51.4 µM (inactive)
